Reference: patent publication US20040063681A1, “Methods for using gold (III) complexes as anti-tumor and anti-HIV agents” (priority 2002, published 2004)

Legend:
[1] = Control UV-vis titration with sodium dodecyl sulfate instead of DNA; assay type: binding; settings: sodium dodecyl sulfate (0-5 μM) instead of DNA
From the text: See Neidle, S. DNA structure and recognition; Oxford University Press: Oxford, 1994; 74-79.

[2] = test system: Human Nasopharyngeal Carcinoma (cisplatin resistance, CNE1); test: MTT cytotoxicity, CNE1; assay type: cell-based
From the text: (§1) Human promyelocytic leukemia (HL-60), human hepatocellular carcinoma (HepG2), Human cervix epitheloid carcinoma cells (HeLa) and human oral epidermoid carcinoma cells (KB-3-1), were obtained from American Type Culture Collection (ATCC) (Rockville, Md.). […] Cell culture flasks and 96 well microtitre plates were from Nalge Nunc hit. Culture medium, other medium constituents and phosphate buffered saline (PBS) were obtained from Gibco BRL (Rockville, Md.). Cell Proliferation Kit I (MTT) was purchased from Roche (Mannheim, Germany).

[3] = test system: Human Nasopharyngeal Carcinoma (SUNE1); test: MTT cytotoxicity, SUNE1; assay type: cell-based
From the text: as §1

[4] = test system: calf thymus DNA; test: UV-vis absorption titration with calf thymus DNA; assay type: binding; settings: for hypochromicity / intrinsic binding constant (Kb): Tris buffer
Protocol: The calf thymus DNA was purchased from Sigma-Aldrich Chemical Co. and was purified by phenol-chloroform extraction. The DNA was dissolved in buffer (5 mM Tris, 5 mM NaCl, pH 7.2). The concentration (per base pair) of calf thymus DNA was determined spectrophotometrically on the basic of ε260, 13,200 M^−1cm^−1bp.
Absorption Titration. The binding interaction of the gold(III) porphyrins to duplex DNA has been studied by UV-vis spectroscopy.
where [ctDNA] is the concentration of DNA, Δεap═|εA−εB| in which εA=Aobs/[complex], and Δε=|εB−εF|. εB and εF correspond to the extinction coefficient of DNA-bound gold(III) porphyrin and the free gold(III) porphyrins, respectively.
The effect of temperature on the intrinsic binding constants was investigated. Using the van't Hoff equation (2): […]

[5] = test system: Human Hepatocellular Carcinoma (HepG2); test: MTT cytotoxicity, HepG2; assay type: cell-based; settings: growth inhibition
From the text: (§2) Human promyelocytic leukemia (HL-60), human hepatocellular carcinoma (HepG2), Human cervix epitheloid carcinoma cells (HeLa) and human oral epidermoid carcinoma cells (KB-3-1), were obtained from American Type Culture Collection (ATCC) (Rockville, Md.). The multi-drug-resistant variant KB-V1 cell line was obtained by stepwise selections for vinblastine resistance as described by Shen et al., J. Biol. Chem. 261:7762-7770 (1986)], and was generously provided by Dr Michael Gottesman (NIH, Bethesda, Md.). Human nasopharyngeal carcinoma cells (SUNE1 and its cisplatin resistance variant, CNE1) were derived from poorly differentiated NPC in Chinese patients as described by Gu et al., Chin. J. Cancer 2:270-272 (1983), and were generously provided by Dr S. W. Tsao (The University of Hong Kong, Hong Kong, PRC). Cell culture flasks and 96 well microtitre plates were from Nalge Nunc hit. Culture medium, other medium constituents and phosphate buffered saline (PBS) were obtained from Gibco BRL (Rockville, Md.). Cell Proliferation Kit I (MTT) was purchased from Roche (Mannheim, Germany).
(§3) The anti-cancer activities of the gold(III) porphyrin complexes were evaluated toward some established human cancer cell lines: promyelocytic leukemia (HL-60), hepatocellular carcinoma (HepG2), cervix epitheloid carcinoma (HeLa), epidermoid carcinoma (KB-3-1) and its multi-drug resistant variant (KB-V1), nasopharyngeal carcinoma (SUNE1) and its cisplatin-resistant variant (CNE1). The experiments were carried out by following the MTT procedure (see Mosmann et al., J. Immunol. Methods 65:55-63 (1983). The IC50 values of the gold(III) porphyrin complexes together with that of cisplatin, and KAuCl4 are provided in Table 4a; and the IC50 values of the gold(III) Schiff-base and bis(pyridyl)carboxamide complexes are shown in Table 4b. The cytotoxicity profiles of some selected gold(III) porphyrin complexes toward SUNE1 and its cisplatin-resistant variant CNE1 are also shown in FIG. 7.

[6] = test system: Human Promyelocytic Leukemia (HL-60); test: MTT cytotoxicity, HL-60; assay type: cell-based; settings: growth inhibition
From the text: as §2, §3

[7] = test system: Human Cervix Epitheloid Carcinoma (HeLa); test: MTT cytotoxicity, HeLa; assay type: cell-based
From the text: as §1

[8] = test system: plasmid DNA (pDR2); test: Restriction endonuclease (ApaI) fragmentation assay; settings: comparison compounds, lanes F and H of FIG. 8
From the text: Binding of the metalloporphyrin onto a duplex DNA such as plasmid DNA (pDR2) is expected to occupy the binding site of the restriction enzyme ApaI, thereby inhibiting the enzymatic DNA digestion. See Ikeda et al., J. Am. Chem. Soc. 104:296-297 (1982).
After ApaI digestion, (lane B), three bands corresponding to 6.6, 4.4 and 2.0 kbp were observed.

[9] = test system: calf thymus DNA; test: Viscosity evaluation of DNA; settings: (η/ηo)^1/3 vs binding ratio r
From the text: Viscosity evaluation. The binding interaction of the gold(III) porphyrins can be further investigated by examining the change of DNA viscosity upon binding of the metalloporphyrin. If the metalloporphyrin binds to DNA by intercalation, this would cause chain elongation, unwinding and stiffening of the DNA helix as a consequence of untwisting of the base pairs and helical backbone needed to accommodate the intercalator.
For comparison, the viscosity profiles for ethidium bromide (intercalator) and Hoechst 33342 (minor groove binder) are also shown is FIG. 10.

[10] = test system: human cancer cell lines (HL-60, HepG2, HeLa, KB-3-1, KB-V1, SUNE1, CNE1); assay type: cell-based; settings: killing oral epidermoid and nasopharyngeal cancer cells
From the text: as §2, with “Cell Proliferation Kit I (MTT) was purchased from Roche (Mannheim, Germany).” left out
The anti-cancer activities of the gold(III) porphyrin complexes were evaluated toward some established human cancer cell lines: promyelocytic leukemia (HL-60), hepatocellular carcinoma (HepG2), cervix epitheloid carcinoma (HeLa), epidermoid carcinoma (KB-3-1) and its multi-drug resistant variant (KB-V1), nasopharyngeal carcinoma (SUNE1) and its cisplatin-resistant variant (CNE1). […]

[11] = biological target: T1, HIV-1 reverse transcriptase (Human immunodeficiency virus type 1 group M subtype B, UniProt P04585); test: HIV-1 reverse transcriptase activity, ELISA method; assay type: biochemical; settings: drug concentration fixed at 6 μM
T1 construct: treatment of HIV-1 RT in Lysis buffer (2 ng, 128.7 μL) with Complex 1j
Protocol: HIV-1 reverse transcriptase activities were measured by an ELISA method (see Eberle et al, J. Virol. Methods, 40:347-356 (1992) performed by incubating the enzyme with digoxigenin-labeled deoxyuridin-5′-triphosphate (dUTP) and the biotin-labeled analogue during reverse transcription starting from the template/primer hybrid poly(A)•oligo(dT)15. After reverse transcription, the newly synthesized DNA was immobilized onto streptavidin-coated ELISA wells, and the incorporation of the dioxigenin-labeled dUTP was assayed by chemiluminescence method. For example, treatment of HIV-1 RT in Lysis buffer (2 ng, 128.7 μL) with Complex 1j (1.3 μL of […] stock solution) dissolved in TBS at 37° C. produced significant RT activity inhibition (˜95%) after 30 min incubation.

[12] = test system: HeLa cells; test: Flow cytometry annexin V/propidium iodide apoptosis assay; assay type: cell-based, human; settings: after treatment (Complex 1a 6 and 15 h; straurosporine 15 h)
From the text: Flow cytometry: The gold(III) porphyrin-induced apoptosis of the HeLa cell line has been further examined by flow cytometry. During the early phase of apoptosis, cells lose the asymmetry of their membrane phospholipids, although the integrity of the cell membrane is maintained. A negatively charged phospholipid, named phosphatidylserine (PS), which is located in the inner part of the plasma membrane, becomes exposed to the cell surface. A phospholipid-binding protein, annexin V (green emissive upon binding), with high affinity binds preferentially to PS. Apoptotic cells therefore can be stained by annexin V before the dying cell changes its morphology and hydrolyzes its DNA. On the other hand, both DNA and the PS would be exposed for necrotic cells. In this case, propidium iodide (PI, red emissive upon binding), can be used to stain selectively the naked DNA. Therefore, both apoptotic and necrotic cells can be discriminated after adding these two staining reagents. For apoptotic cells, only annexin V would stain; for necrotic cells, both annexin V and PI would stain.
For comparison, a control cell culture experiment was performed in the absence of Complex 1a and straurosporine. […] Throughout the flow cytometric experiment, <1% of necrotic cells were observed.

## Fc1c(F)c(F)c(-c2c3nc(c(-c4c(F)c(F)c(F)c(F)c4F)c4ccc([n-]4)c(-c4c(F)c(F)c(F)c(F)c4F)c4nc(c(-c5c(F)c(F)c(F)c(F)c5F)c5ccc2[n-]5)C=C4)C=C3)c(F)c1F.[Au+3].[Cl-] [Complex 1g]
[1]
  bathochromic shift: 6 nm
  hypochromicity of the Soret band: 48%
[2]
  IC50 ratio [cisplatin/gold (III) porphyrin complexes] CNE1: 28.1
[2]; MTT, growth inhibition, cisplatin resistant
  IC50: 1450 nM
[3]
  IC50 ratio [cisplatin/gold (III) porphyrin complexes] SUNE1: 5.97
[3]; MTT, growth inhibition
  IC50: 2110 nM
[4]; 291.8 K
  hypochromicity: 18.2%
  intrinsic binding constant (Kb): 0.73 × 10^6 dm^3mol^−1
[4]; 297.6 K
  hypochromicity: 18.0%
  intrinsic binding constant (Kb): 0.58 × 10^6 dm^3mol^−1
[4]; 301.4 K
  hypochromicity: 16.5%
  intrinsic binding constant (Kb): 0.47 × 10^6 dm^3mol^−1
[4]; 306.1 K
  hypochromicity: 10.1%
  intrinsic binding constant (Kb): 0.42 × 10^6 dm^3mol^−1
[4]; 311.7 K
  hypochromicity: 8.7%
  intrinsic binding constant (Kb): 0.34 × 10^6 dm^3mol^−1
[4]; binding to calf thymus DNA, van't Hoff analysis
  ΔH°: −7.0 ± 0.4 kcalmol^−1
[4]; binding to calf thymus DNA, van't Hoff analysis, 298 K
  ΔG° (298 K): −7.8 ± 0.5
[5]
  IC50: 2310 nM
[6]
  IC50: 1450 nM
[7]
  IC50 ratio [cisplatin/gold (III) porphyrin complexes] HeLa: 3.52
[7]; MTT, growth inhibition
  IC50: 3180 nM

## CCOc1ccc(-c2nc3ccc(-c4nc5ccc(N6CCN(C)CC6)cc5[nH]4)cc3[nH]2)cc1 [Hoechst 33342, reference compound]
[8]
  effect on ApaI digestion of pDR2: complete inhibition of the DNA digestion
[9]
  change in viscosity of the DNA: no appreciable change in viscosity of the DNA

## [Au+3].[Cl-].[Cl-].[Cl-].[Cl-].[K+] [KAu^IIICl4, reference compound]
[10]
  times less potent than Complex 1a: about 40 times
[11]
  HIV-1 RT inhibition: 48%

## CN[C@@H]1C[C@H]2O[C@@](C)([C@@H]1OC)n1c3ccccc3c3c4c(c5c6ccccc6n2c5c31)C(=O)NC4 [straurosporine, reference compound]
[12]
  annexin V emission: the magnitude of the annexin V emission was enhanced
